{"source": "patent US9061981B2", "about": "“Diphenyl substituted cyclohexane derivatives, useful as modulators of the estrogen receptors beta” (Acadia Pharmaceuticals Inc., priority 2011, dated 2015)", "key": {"[1]": {"assay": "Bioavailability after intravenous and sublingual administration in male beagle dogs", "type": "in vivo", "details": "for half-life: 10 mg/kg", "description": "In this example, the sublingual bioavailability of Compound 8 was evaluated after intravenous and sublingual doses in male beagle dogs. The test compound was dosed at 1 and 10 mg/kg through intravenous and sublingual routes, respectively. Plasma samples were collected 10 min, 20 min, 30 min, 45 min, 1 hour, 2 hours, 4 hours, 8 hours, 12 hours and 24 hours post dose. Plasma levels were determined by LC-MS/MS analysis. A pre-study standard curve was analyzed to determine the specificity, range and lower limit of quantification of the LC-MS/MS method. The study samples were treated identically to the standards. Pharmacokinetic parameters were estimated by a non-compartmental model using WinNonlin v4.1 software."}, "[2]": {"test_system": "TNFα", "assay": "ELISA for TNFα in PBMCs and brain homogenate after 6OHDA lesion", "type": "in vivo, rat", "details": "6OHDA rats", "description": "(§1) Thus, Compound 8 was assessed to determine whether ERβ agonist treatment might alter the inflammatory profile following bilateral 6OHDA lesions of the SN. ELISAs for tumor necrosis factor α (TNFα), monocyte chemotactic protein 1 (MCP-1 aka CCL2), interleukin-6 (IL-6), and interleukin-1β were conducted in peripheral blood mononuclear cells (PBMCs) and brain tissue homogenates from sham or 6OHDA treated animals. […] Both TNFα and MCP-1 were elevated in PBMCs from 6OHDA animals (data not shown). Thus, these two markers were chosen for further examination. […] Treatment with Compound 8 prevented the rise in TNFα in both brain and PBMCs (FIG. 6). MCP-1 was elevated in PBMCs following 6OHDA when blood was taken on day 7 post-surgery, but not in brain homogenates taken on day 14 (following behavioral testing). The increase in MCP-1 in PBMCs was not prevented by Compound 8 treatment, even though the behavioral profile was normal. Thus, TNFα might be a maker of an inflammatory pathway triggered by 6OHDA infusion and prevented by treatment with an ERβ agonist in a manner that also prevents motor deficits and dopamine neuron loss in the substantia nigra."}, "[3]": {"test_system": "MCP-1", "assay": "ELISA for MCP-1 in PBMCs after 6OHDA lesion", "type": "in vivo, rat", "details": "6OHDA rats, blood day 7 post-surgery", "description": "as §1"}, "[4]": {"test_system": "CFA-treated animals", "assay": "Complete Freund's Adjuvant (CFA) model of chronic inflammation", "type": "in vivo, Rats", "details": "10 mg/kg sc, 24 hrs after drug administration", "description": "Rats were treated with Complete Freund's Adjuvant (CFA). After 4 days (upon reaching stable inflammation), CFA-treated animals were treated with 10 mg/kg subcutaneously (sc) of Compound 8, incomplete Freund's Adjuvant or vehicle, respectively. Responses were measured 24 hrs after drug administration. […] Latencies, expressed in seconds (sec), were defined as the time needed for the animal to remove the treated paw from the hot surface."}, "[5]": {"test_system": "Taxol-induced allodynia", "assay": "Taxol-induced neuropathy model", "type": "in vivo, male SD rats", "details": "2 hours post-dose", "description": "Neuropathy was induced in male SD rats by 4×1 mg/kg consecutive daily doses of taxol as described (Naguib M, Diaz P, Xu J J, Astruc-Diaz F, Craig S, Vivas-Mejia P, Brown D L. MDA7: a novel selective agonist for CB2 receptors that prevents allodynia in rat neuropathic pain models. Br J. Pharmacol. 2008 December; 155(7):1104-16). The presence of tactile allodynia (von Frey filament 50% response threshold of <5 g) was confirmed prior to inclusion in the study. Drugs were administered sub-cutaneously (s.c.) except gabapentin was given intra-peritoneally (i.p.). Doses are given in mg/kg. * p<0.05.\nAllodynia was assessed by applying a light tactile stimulus (Von Frey hairs) to the plantar surface of the surgical paw until the 50% threshold was established. A positive response was recorded if the paw was sharply withdrawn. Eight VonFrey hairs were used (3.61, 3.84, 4.08, 4.31, 4.56, 4.74, 4.93 and 5.18). MPE (%) was calculated as [(Rdrug−Rveh)/(Rsham−Rveh)]*100% where Rveh was 4 and Rsham was 13. Repeat dosing (FIG. 10C) was performed by administering the indicated doses of Compound 8 once daily via the s.c. route. Efficacy was measured 2 hours post-dose."}, "[6]": {"assay": "Brain to plasma ratio in rats", "type": "in vivo"}, "[7]": {"details": "dog intravenous 1 mg/kg vs parameters observed in rats"}}, "note": "Read-outs that look alike come from different tables or passages of the source.", "data": [{"smiles": "Oc1ccc(C2(c3ccccc3F)CCC(F)(F)CC2)cc1", "note": "[Compound 8, 4-(4,4-Difluoro-1-(2-fluorophenyl)cyclohexyl)phenol]", "values": [{"measurement": "Cmax increase compared to rats", "setting": "[1]; [7]", "value": 2, "unit": "fold"}, {"measurement": "clearance decrease compared to rats", "setting": "[1]; [7]", "value": 2, "unit": "fold"}, {"measurement": "volume of distribution decrease compared to rats", "setting": "[1]; [7]", "value": 2, "unit": "fold"}, {"measurement": "half-life", "setting": "[1]; male, beagle, dog, plasma, dog, sublingual 10 mg/kg, read-out: average half-life (converted)", "value": "2.08 ± 0.5", "unit": "h"}, {"measurement": "half-life", "setting": "[1]; male, beagle, dog, plasma, dog, sublingual, as summarised, read-out: half life (converted)", "value": 2, "unit": "h"}, {"measurement": "bioavailability", "setting": "[1]; male, beagle, plasma, other: sublingual, dog, sublingual 10 mg/kg vs intravenous 1 mg/kg, read-out: overall percent bioavailability following sublingual dose", "value": 44, "unit": "%"}, {"measurement": "clearance", "setting": "[1]; male, beagle, plasma, dog, intravenous 1 mg/kg", "value": 47, "unit": "mL/min/kg"}, {"measurement": "Cmax", "setting": "[1]; male, beagle, plasma, dog, intravenous 1 mg/kg, read-out: average maximum concentration (Cmax)", "value": "738 ± 199", "unit": "ng/mL"}, {"measurement": "Vd", "setting": "[1]; male, beagle, plasma, dog, intravenous 1 mg/kg, read-out: volume of distribution", "value": "3.5 ± 0.9", "unit": "L/kg"}, {"measurement": "Cmax", "setting": "[1]; male, beagle, plasma, dog, sublingual 10 mg/kg, read-out: Cmax", "value": "1060 ± 110", "unit": "ng/mL"}, {"measurement": "6OHDA-induced increase of TNFα in PBMCs and brain", "setting": "[2]", "value": "blocked this increase"}, {"measurement": "6OHDA-induced increase of MCP-1 in PBMCs", "setting": "[3]", "value": "not prevented"}, {"measurement": "edema in the treated paw (inflammation)", "setting": "[4]", "value": "inhibits hyperalgesia and inflammation"}, {"measurement": "thermal hyperalgesia, 52° C. hot plate latency", "setting": "[4]", "value": "inhibits hyperalgesia"}, {"measurement": "efficacy on repeat dosing", "setting": "[5]; once daily s.c.", "value": "maintained over 5 days"}, {"measurement": "effect on Taxol-induced allodynia", "setting": "[5]; s.c. (gabapentin i.p.), Compound 8 at 10 and 30 mg/kg", "value": "essentially complete reversal"}, {"measurement": "brain to plasma ratio", "setting": "[6]", "value": "good brain to plasma ratio"}]}]}
